Earlier results as cited in patent publication US9309247B2, “2-substituted imidazo[4,5-D]phenanthroline derivatives and their use in the treatment of cancer” (Aptose Biosciences Inc., priority 2013, dated 2016).

What was measured:
[1] = NCI screen; cited from earlier work
[2] = system: Saccharmyces cerevisiae strains that have mutations in genes related to cell cycle control and DNA repair damage; details: Stage0 testing, single concentration, six yeast strains; cited from earlier work

For `Cc1ccccc1-c1nc2c3ccccc3c3ccccc3c2[nH]1` [NCI #338970], the “activity in the In Vivo Anticancer Drug Screen” value [1] is given as “None of these three compounds showed any activity” and the “activity in the Yeast Anticancer Drug Screen” value [2] is given as “active”.
